In US4740501A (priority 1985, dated 1988):
pIC50: −log10 of the molar value.

Columns and labels:
B-16 melanoma cells = experiment: Bioassay of tumorigenicity of in vitro treated tumor cells in syngeneic hosts; type: in vivo, C57BL/6 mice; conditions: for MEAN SURVIVAL TIME (MST) of recipients: control 28
Source text: (§1) Suspensions of untreated and tripeptide treated MJY-alpha mammary tumor, B-16 melanoma, and L-1210 leukemia cells were adjusted to a concentration of 1×10^7 cells/ml based on the initial tumor cell concentration before the tripeptide exposure. Tumor cells were inoculated into syngeneic hosts at a concentration of 1×10^6 cells in […]. Female BALB/c/Crgl recipients of MJY-alpha mammary tumor cells and male C57BL/6/Jx hosts receiving B16 melanoma cells were inoculated subcutaneously; BDf1 mice were given intraperitoneal injections of L-1210 cells. Subcutaneous tumors were measured along their long and short axes every 1 to 3 days; tumor size is reported as the product of the two measurements (mm^2). The examination periods for mice receiving L-1210, MJY-alpha and B-16 tumor grafts were 45, 80, and 85 days, respectively. All mice were autopsied at the time of death or sacrifice.

C-type virus = experiment: Monitoring of treated MJY-alpha cells for induction of C-type virus; type: cell-based; conditions: 0.5 to 48 hour pulse or 8 months culture in the tripeptide
Source text: The possible multifocal action of this antitumor tripeptide was a concern during examination of this compound. Since virus particles obtained by induction are infectious and oncogenic, PTT.119-treated cells were monitored for the presence of C-type virus. […] In addition, no diminution of the inhibitory effect of PTT.119 or enhancement of B-type retrovirus production was observed under these conditions.

L1210/L-PAM leukemia = experiment: cells; type: cell-based, mice
[1] = system: L-1210 leukemia cell suspensions; experiment: Tumor cell survival (trypan blue), continuous exposure; type: cell-based, Mouse; conditions: for Percent Tumor Cell Survival / % tumor cell survival: L-1210; for Percent Tumor Cell Survival: treated 24 hr
L1210DDP = experiment: cells; type: cell-based
MMTV = experiment: Extracellular MMTV protein by ELISA; type: cell-based, mouse; conditions: for ug MMTV protein/150 cm^2 culture: untreated 20.32
Protocol: Extracellular MMTV was quantitated using a modification of a direct Enzyme-Linked Immunosorbent Assay (ELISA) technique devised by Khan et al. (1982). Nunc immunoplates were sensitized with MMTV preparations disrupted in 2% NP-40 and serially diluted in 0.15M Na2 CO3 -0.035M NaHCO3 buffer, pH 8.6, by incubation in a moist chamber for 18 hours at 4° C. Wells were washed three times between all procedural steps with 0.01M phosphate-buffered-saline with 0.5% Tween 80, pH 7.4 (Pi/Na/Tween). Sensitized wells were then sequentially subjected to 1 hour incubations with (1) 0.5% bovine serum albumin in Pi/NaCl/Tween (4° C.), followed by either (2) preimmune rabbit sera or multivalent anti-MMTV antisera diluted 1:50 in Pi/NaCl/Tween at 37° C., and finally (3) a 1:1000 dilution of alkaline phosphatase-conjugated goat anti-rabbit IgG (Dynatech, Inc.) at 37° C. Reactions were terminated with 25 ul of 3N NaOH after incubation for 1 to 2 hours at 37° C. Intensity of the color reactions were determined at […] using a Dynatech ELISA plate reader. The detection limit of the assay was 3-5 ng MMTV protein per well.

[2] = system: MJY-alpha mammary tumor cells; experiment: PTT.119 induced resistance test, long-term low dose culture; type: cell-based
[3] = system: MJY-alpha mammary tumor cells; experiment: Bioassay of tumorigenicity of in vitro treated tumor cells in syngeneic hosts; type: in vivo, BALB/c mice; conditions: for MEAN SURVIVAL TIME (MST) of recipients: control 42
Source text: as §1

CCOC(=O)[C@H](CCSC)NC(=O)[C@H](Cc1cccc(N(CCCl)CCCl)c1)NC(=O)[C@@H](N)Cc1ccc(F)cc1.Cl [PTT.119, 3-(p-fluorophenyl)-L-alanyl-3-[m-bis(2-chloroethyl)aminophenyl]-L-alanyl-L-methionine ethyl ester hydrochloride]
tumor growth in recipients (B-16 melanoma cells; 10^6 B-16 cells treated with 25 ug or higher for 30 to 240 min): complete absence of tumor growth
MEAN SURVIVAL TIME (MST) of recipients (B-16 melanoma cells; B-16, 5 ug/ml, 60 min): 31 days
MEAN SURVIVAL TIME (MST) of recipients (B-16 melanoma cells; B-16, 5 ug/ml, 120 min): 33 days
MEAN SURVIVAL TIME (MST) of recipients (B-16 melanoma cells; B-16, 5 ug/ml, 240 min): 41 days
MEAN SURVIVAL TIME (MST) of recipients (B-16 melanoma cells; B-16, 10 ug/ml, 30 min): 35 days
MEAN SURVIVAL TIME (MST) of recipients (B-16 melanoma cells; B-16, 10 ug/ml, 60 min): 35 days
MEAN SURVIVAL TIME (MST) of recipients (B-16 melanoma cells; B-16, 10 ug/ml, 120 min): 35 days
MEAN SURVIVAL TIME (MST) of recipients (B-16 melanoma cells; B-16, 10 ug/ml, 240 min): 45 days
MEAN SURVIVAL TIME (MST) of recipients (B-16 melanoma cells; B-16, 25 ug/ml, 30 min): 52 days
MEAN SURVIVAL TIME (MST) of recipients (B-16 melanoma cells; B-16, 25 ug/ml, 60 min): 68 days
MEAN SURVIVAL TIME (MST) of recipients (B-16 melanoma cells; B-16, 25 ug/ml, 120 min): 65 days
initial lag period between inoculation and appearance of palpable tumors (B-16 melanoma cells; B-16, increasing dosages, 2 hr treatment): lengthened
reduction of viable tumor cell population (B-16 melanoma cells; B-16, inferred from LD100 of 100 viable cells): at least 99.9%
tumor growth rates of untreated and treated cells (B-16 melanoma cells; B-16, once graft established): identical
endogenous (C-type) virus production (C-type virus): no detection of any endogenous virus production
T.C.D.100 (L1210/L-PAM leukemia): 30.0
surviving fraction at end of examination period (L1210/L-PAM leukemia): 0.8-3%
percentage of viable cells (L1210/L-PAM leukemia; 3.75 µM): 40-50%
pIC50 (L1210/L-PAM leukemia; Mus musculus, L1210/LPAM, 24 h, read-out: T.C.D.50): 5.52
Percent Tumor Cell Survival ([1]; 0.1 ug/ml): 82%
% tumor cell survival ([1]; 1 ug/ml, 1 hr exposure): 95%
% tumor cell survival ([1]; 1 ug/ml, 8 hr): 100%
% tumor cell survival ([1]; 1 ug/ml, 24 hr): 65%
Percent Tumor Cell Survival ([1]; 1 ug/ml): 70%
% tumor cell survival ([1]; 5 ug/ml, 1 hr): 100%
% tumor cell survival ([1]; 5 ug/ml, 4 hr): 84%
% tumor cell survival ([1]; 5 ug/ml, 24 hr): 57%
Percent Tumor Cell Survival ([1]; 5 ug/ml): 62%
% tumor cell survival ([1]; 10 ug/ml, 1 hr): 92%
% tumor cell survival ([1]; 10 ug/ml, 4 hr): 75%
% tumor cell survival ([1]; 10 ug/ml, 24 hr): 12%
Percent Tumor Cell Survival ([1]; 10 ug/ml): 28%
% tumor cell survival ([1]; 25 ug/ml, 1 hr): 50%
% tumor cell survival ([1]; 25 ug/ml, 4 hr): 25%
% tumor cell survival ([1]; 25 ug/ml, 8 hr): 15%
% tumor cell survival ([1]; 25 ug/ml, 24 hr): 0%
Percent Tumor Cell Survival ([1]; 25 ug/ml): 6%
decrease in leukemia cell survival ([1]; continuous 24 hr exposure, all concentrations tested (0.1 to 50 ug/ml)): 18-94%
pIC50 (L1210DDP; 24 h, read-out: T.C.D.50): 6.28
concentration at which remaining L1210DDP population becomes sensitive (L1210DDP; 24 hours exposure): 4 to 15 µM
share of L1210DDP cells highly susceptible (L1210DDP; doses of 1 uM, 24 hours): Approximately 60%
levels of extracellular MMTV compared to control cells (MMTV; 0.15, 1.5 and 7.5 uM, after 10 in vitro passages): less than 50%
ug MMTV protein/150 cm^2 culture (MMTV; continual 0.15 uM, passage 1): 17.4 µg
ug MMTV protein/150 cm^2 culture (MMTV; continual 0.15 uM, passage 5-6): 16.8 µg
ug MMTV protein/150 cm^2 culture (MMTV; continual 0.15 uM, passage 9-10): 9.52 µg
ug MMTV protein/150 cm^2 culture (MMTV; continual 1.5 uM, passage 5-6): 15.9 µg
ug MMTV protein/150 cm^2 culture (MMTV; continual 1.5 uM, passage 9-10): 7.5 µg
ug MMTV protein/150 cm^2 culture (MMTV; continual 7.5 uM, passage 5-6): 11.8 µg
ug MMTV protein/150 cm^2 culture (MMTV; continual 7.5 uM, passage 9-10): 8.3 µg
MMTV protein, % of control level (MMTV; day 1, 15 uM 2 hr pulse): 78%
ug MMTV protein/75 cm^2 flask (MMTV; day 1, 15 uM 2 hr pulse, control 20.6): 16.0 µg
MMTV protein, % of control level (MMTV; day 1, 15 uM 4 hr pulse): 81%
ug MMTV protein/75 cm^2 flask (MMTV; day 1, 15 uM 4 hr pulse, control 20.6): 16.7 µg
MMTV protein, % of control level (MMTV; day 1, 37.5 uM 0.5 hr pulse): 70%
ug MMTV protein/75 cm^2 flask (MMTV; day 1, 37.5 uM 0.5 hr pulse, control 20.6): 14.4 µg
MMTV protein, % of control level (MMTV; day 1, 37.5 uM 1.0 hr pulse): 53%
ug MMTV protein/75 cm^2 flask (MMTV; day 1, 37.5 uM 1.0 hr pulse, control 20.6): 11.0 µg
MMTV protein, % of control level (MMTV; day 2, 15 uM 2 hr pulse): 64%
ug MMTV protein/75 cm^2 flask (MMTV; day 2, 15 uM 2 hr pulse, control 19.3): 12.3 µg
MMTV protein, % of control level (MMTV; day 2, 15 uM 4 hr pulse): 62%
ug MMTV protein/75 cm^2 flask (MMTV; day 2, 15 uM 4 hr pulse, control 19.3): 11.9 µg
MMTV protein, % of control level (MMTV; day 2, 37.5 uM 0.5 hr pulse): 57%
ug MMTV protein/75 cm^2 flask (MMTV; day 2, 37.5 uM 0.5 hr pulse, control 19.3): 11.0 µg
MMTV protein, % of control level (MMTV; day 2, 37.5 uM 1.0 hr pulse): 58%
ug MMTV protein/75 cm^2 flask (MMTV; day 2, 37.5 uM 1.0 hr pulse, control 19.3): 11.2 µg
MMTV protein, % of control level (MMTV; day 7, 15 uM 2 hr pulse): 31%
ug MMTV protein/75 cm^2 flask (MMTV; day 7, 15 uM 2 hr pulse, control 35.2): 11.0 µg
MMTV protein, % of control level (MMTV; day 7, 15 uM 4 hr pulse): 22%
ug MMTV protein/75 cm^2 flask (MMTV; day 7, 15 uM 4 hr pulse, control 35.2): 7.6 µg
MMTV protein, % of control level (MMTV; day 7, 37.5 uM 0.5 hr pulse): 16%
ug MMTV protein/75 cm^2 flask (MMTV; day 7, 37.5 uM 0.5 hr pulse, control 35.2): 5.8 µg
MMTV protein, % of control level (MMTV; day 7, 37.5 uM 1.0 hr pulse): 3%
ug MMTV protein/75 cm^2 flask (MMTV; day 7, 37.5 uM 1.0 hr pulse, control 35.2): 0.9 µg
survival of monolayers in continuous treatment ([2]; 15 uM): did not survive beyond the second passage
dose response curves of treated lines vs previously untreated MJY-alpha cells ([2]; alpha-0.15, alpha-1.5, alpha-7.5, 8 months, 24 h challenge with 1.5-75 uM): No alteration
tumor growth in recipients ([3]; 10^6 MJY-alpha cells treated with 25 ug or higher for 30 to 240 min): complete absence of tumor growth
MEAN SURVIVAL TIME (MST) of recipients ([3]; MJY-alpha, 5 ug/ml, 60 min): 52 days
MEAN SURVIVAL TIME (MST) of recipients ([3]; MJY-alpha, 5 ug/ml, 120 min): 43 days
MEAN SURVIVAL TIME (MST) of recipients ([3]; MJY-alpha, 10 ug/ml, 30 min): 44 days
MEAN SURVIVAL TIME (MST) of recipients ([3]; MJY-alpha, 10 ug/ml, 60 min): 46 days
MEAN SURVIVAL TIME (MST) of recipients ([3]; MJY-alpha, 10 ug/ml, 120 min): 61 days
MEAN SURVIVAL TIME (MST) of recipients ([3]; MJY-alpha, 25 ug/ml, 30 min): 56 days
initial lag period between inoculation and appearance of palpable tumors ([3]; MJY-alpha, increasing dosages, 2 hr treatment): lengthened
reduction of viable tumor cell population ([3]; MJY-alpha, inferred from LD100 of 100 viable cells): at least 99.9%
tumor growth rates of untreated and treated cells ([3]; MJY-alpha, once graft established): identical
